This passage reports EC50 results from PubChem BioAssay AID1959 (Broad Institute, 2009).

pEC50: −log10 of the molar value. Calls of active or inactive are those of the source.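 How the source made its calls: active means growth-inhibition EC50 no more than tenfold above the top tested dose; inconclusive means flat fit between 30% and 70% inhibition, or unreliable fit; inactive means EC50 more than tenfold above the top tested dose.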 Where only a bound is given, the exact number is not on record here.

The test system of this test is E. coli NEB5alpha growth, BacTiter-Glo luminescence, 4 h. Nature of the test: Escherichia coli growth inhibition, dose response, counter-screen for MEX-5/POS-1 RNA-binding inhibitor project, luminescence, NEB5alpha (AID 1959).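 Further: pUC19-transformed ampicillin-resistant cells grown in LB with ampicillin.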 For orientation: The purpose of a counterscreen is to sort out artefacts and off-target activity.
With `COc1ccc(/C=N/NC(=O)c2ccc(N(C)S(=O)(=O)c3ccccc3)cc2)cc1`, the EC50 – broadly, the midpoint of the concentration-response curve – was > 11 µM (inactive).

Consider `O=C1NC(=S)/C(=C\c2ccc(-c3ccccc3Cl)o2)S1`, for which the EC50 was > 11 µM (inactive).

For the compound `CCOc1cc(C(c2c(C)[nH][nH]c2=O)c2c(C)[nH][nH]c2=O)cc([N+](=O)[O-])c1O`, the EC50 was > 11 µM (inactive).

As to `O=C1N=C(N2CCCCC2)S/C1=C/C1=Cc2ccccc2OC1`, the EC50 is > 11 µM (inactive).

On to `CC(C)CNC(=O)C1Nc2ccc(OC(F)(F)F)cc2C2C=CCC12` (centres undefined), for which the EC50 is > 11 µM (inactive).

With `Cc1ccccc1NC(=O)CN1C(=O)S/C(=C\c2cccn2-c2cccc(C(=O)O)c2)C1=O`, the EC50 is > 11 µM (inactive).

On to `Cc1ccc[n+](-c2[nH]c(=O)sc2/C=N/NC(=O)c2ccccc2[O-])c1`, for which the EC50 was > 11 µM (inactive).

On to `Cc1nnc(N2C(=O)C(O)=C(C(=O)c3ccco3)C2c2cccc3ccccc23)s1` (centres undefined), for which the EC50 is > 11 µM (inactive).

For `Clc1cc(-c2ccc(/C=N/n3cnnc3)o2)ccc1Br`, the EC50 is > 11 µM (inactive).

`CC(C)/C=C1\CC/C(=C\c2ccc(N(C)C)cc2)C1=O`: the EC50 is > 11 µM (inactive).

Turning to `Cc1cc(/C=N/Nc2ccc([N+](=O)[O-])cn2)c(C)n1-c1cccc(C(=O)O)c1`, the EC50 is > 11 µM (inactive).

For the compound `CC(C)c1ccc(/C=C(\NC(=O)c2ccccc2)C(=O)NCCN2CCOCC2)cc1`, the EC50 is > 11 µM (inactive).

For the compound `C(=N\NC(=Nc1ccccc1)c1ccccn1)/c1ccccn1`, the EC50 was > 11 µM (inactive).

As for `CC(=O)N=Cc1c(C)c(C#N)c(=O)n(C)c1O`, the EC50 is > 11 µM (inactive).

For the compound `O=C(O)c1cc(-c2ccc(/C=C3\NC(=O)N(c4ccc(Cl)cc4)C3=O)o2)ccc1Cl`, the EC50 was > 11 µM (inactive).

Take `O=C1c2cccc3c(O)ccc(c23)C(=O)N1c1ccc(Cl)cc1`: the EC50 is > 11 µM (inactive).

Take `c1ccc(-c2nc(-c3ccccn3)nc(-c3ccccn3)n2)nc1`: the EC50 is > 11 µM (inactive).

As for `Cc1ccc(-c2ccccc2)n1-c1cccc(C(=O)O)c1`, the EC50 is > 11 µM (inactive).

For the compound `O=C(O)c1ccc(-n2cccc2/C=C2/SC(=O)N(CC(=O)N3CCCC3)C2=O)cc1`, the EC50 was > 11 µM (inactive).

As to `COc1ccc(CCn2c(=N)c(C(=O)NC3CCCCC3)cc3c(=O)n4ccccc4nc32)cc1`, the EC50 was > 11 µM (inactive).

With `O=C1N=c2ccc(Br)cc2=C1c1sc(=O)[nH]c1O`, the EC50 was > 11 µM (inactive).

With `COc1cc2c3nnc(-c4ccccc4)c-3cn(Cc3ccc(F)cc3)c2cc1OC`, the EC50 is > 11 µM (inactive).

On to `Cc1ccc(NC(=O)COc2ccc(/C=C3/SC(=Nc4ccccc4)N(Cc4cccnc4)C3=O)cc2)cc1`, for which the EC50 is > 11 µM (inactive).

On to `O=C(Cc1nc2ccccc2[nH]c1=O)c1ccccc1`, for which the EC50 was > 11 µM (inactive).

As for `O=c1[nH]c(=O)n(-c2cccc(Cl)c2)c(O)c1/C=N/c1ccccn1`, the EC50 is > 11 µM (inactive).

With `COC(=O)CCCC1=CC2=CC(=O)C(C)(OC(=O)c3cnc4ccccc4n3)C(=O)C2=CO1` (centres undefined), the EC50 is > 11 µM (inactive).

For `CN(C)CCCN(C(=O)/C=C/c1cccs1)c1nc2ccc(F)cc2s1`, the EC50 is > 11 µM (inactive).

Turning to `CC1=NN(C(N)=S)C(=O)C1N=Nc1cccc(C(=O)O)c1` (centres undefined), the EC50 is > 11 µM (inactive).

`Cc1cc(C)nc(NN2C(=O)C=CC2=O)n1`: the EC50 is > 11 µM (inactive).

Take `CCCCOc1ccc(/C=C2/Sc3ccccc3C2=O)cc1`: the EC50 is > 11 µM (inactive).

On to `NC(=Nc1ccc(N)cc1)C(N)=Nc1ccc(N)cc1`, for which the EC50 was > 11 µM (inactive).

Turning to `CCOC(=O)[C@@]1(C#N)C(c2ccc(Cl)c(Cl)c2)[C@H](C(N)=O)N2C=C(C(C)=O)C=C[C@H]21` (some centres undefined), the EC50 is > 11 µM (inactive).

Regarding `CCn1cc(C=C2C(=O)N(C)C(=O)N(C)C2=O)c2ccccc21`, the EC50 was > 11 µM (inactive).

Turning to `CN(C)c1ccc(O)c2c1CC1CC3C(N(C)C)C(=O)C(C(N)=O)=C(O)[C@@]3(O)C(=O)C1=C2O` (some centres undefined), the pEC50 (in general, −log10 of the EC50, conventionally taken in molar units) is 5.19.

Turning to `CC(=O)c1ccc(NC(=O)CSc2nnc(-c3ccncc3)o2)cc1`, the EC50 was > 11 µM (inactive).

In the case of `CCCN1C(=O)c2cccc3c(N4CCCCC4)ccc(c23)C1=O`, the EC50 was > 11 µM (inactive).

Regarding `COc1cc(C2C3CN(C)CC=C3C(C#N)=C(N)C2(C#N)C#N)ccc1OC(C)C` (centres undefined), the EC50 was > 11 µM (inactive).

Regarding `COc1cc(C(CCN2CCCC2)c2c(OC)cc(OC)c3c(-c4ccccc4)cc(=O)oc23)cc(OC)c1OC` (centres undefined), the EC50 was > 11 µM (inactive).

As to `O=c1[nH]c2ccccc2nc1/C=C/c1ccc(F)cc1`, the EC50 is > 11 µM (inactive).

On to `CC1(CCl)N([O-])C2=C(CCCC2)[N+]1=O` (centres undefined), for which the EC50 was > 11 µM (inactive).

In the case of `CCOC(=O)c1c2c3c(cccc3n(C)c1=O)C(=O)c1ccccc1-2`, the EC50 is > 11 µM (inactive).

Turning to `CCN(CC)C(=O)c1ccc2c(c1)C1C(Cl)C(Sc3ccccc3[N+](=O)[O-])CC1C(C(=O)O)N2` (centres undefined), the EC50 was > 11 µM (inactive).

As for `COc1cc(OC)c2c(O)c3c(c(-c4c5c(c(O)c6c(OC)cc(OC)cc46)CO[C@@H](C)[C@H]5O)c2c1)[C@H](O)[C@H](C)OC3`, the EC50 was > 11 µM (inactive).

Turning to `Cc1cc(=O)[nH]c(N/N=C/c2ccc(O)c(O)c2)n1`, the EC50 was > 11 µM (inactive).

In the case of `O=c1cc(-c2ccccc2Cl)oc2c(NS(=O)(=O)c3cc(Cl)cc(Cl)c3O)ccc(O)c12`, the EC50 was > 11 µM (inactive).

Consider `O=C1NC(=Nc2ccccc2Cl)S/C1=C\c1cc([N+](=O)[O-])ccc1O`, for which the EC50 is > 11 µM (inactive).

With `O=C1CSC(=S)N1N1C(=O)c2cccc([N+](=O)[O-])c2C1=O`, the EC50 was > 11 µM (inactive).

`COCCNC(=O)CCC(=O)NNc1nc2ccccc2c2nc(C)nn12`: the EC50 is > 11 µM (inactive).

Consider `CC1=NN(C(N)=S)C(=O)C1N=Nc1c(Cl)cc([N+](=O)[O-])cc1Cl` (centres undefined), for which the EC50 was > 11 µM (inactive).

Regarding `CCCN1CC=C2C(C#N)=C(N)C(C#N)(C#N)C(c3cc(OC)ccc3OC)C2C1` (centres undefined), the EC50 was > 11 µM (inactive).

Consider `O=c1[nH]c(=O)n(-c2ccc(F)cc2)c(O)c1/C=C1\C=Nc2ccccc21`, for which the EC50 is > 11 µM (inactive).

Regarding `CCCn1c(O)c(CN2CCCCC2)c(C)c(C#N)c1=O`, the EC50 was > 11 µM (inactive).

With `COC(=O)CCCC1=CC2=CC(=O)C(C)(OC(=O)c3ccc(Cl)nc3)C(=O)C2=CO1` (centres undefined), the EC50 was > 11 µM (inactive).

In the case of `Oc1[nH]c2ccccc2c1N=Nc1ccc(F)cc1`, the EC50 is > 11 µM (inactive).

With `CCOC(=O)CSc1nc2ccc(Nc3nc(N4CCOCC4)nc(N4CCOCC4)n3)cc2s1`, the EC50 was > 11 µM (inactive).

In the case of `Cc1cc(O)c(CN(C)C)c2c1C(=O)/C(=C/c1ccco1)O2`, the EC50 was > 11 µM (inactive).

On to `Cc1cccc(/C=C(\C(=O)C(=O)O)c2ccc3ccccc3n2)c1`, for which the EC50 was > 11 µM (inactive).

As for `O=C(O)CCCCCn1c(SCC(=O)c2ccc(O)c(O)c2)nc2ccsc2c1=O`, the EC50 is > 11 µM (inactive).

Take `COc1ccc(C2CC(=O)C(C=NCCCO)=C(O)C2)cc1` (centres undefined): the EC50 is > 11 µM (inactive).
